Source: PubChem BioAssay (NCI)
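Five concentrations, 48 hours, 96-well plates. The concentration for 50% growth inhibition is given as GI50. At the TGI there is no net growth.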

Key:
Test in all cases: inhibition of tumour cell growth, NCI panel, 48 h
MOLT-4 leukemia = test system: MOLT-4 leukemia
PC-3 prostate = test system: PC-3 prostate
SNB-75 CNS = test system: SNB-75 CNS
OVCAR-5 ovarian = test system: OVCAR-5 ovarian
MALME-3M melanoma = test system: MALME-3M melanoma
HT29 colon = test system: HT29 colon
ACHN renal = test system: ACHN renal
SF-539 CNS = test system: SF-539 CNS
SK-MEL-5 melanoma = test system: SK-MEL-5 melanoma
MDA-MB-231 breast = test system: MDA-MB-231 breast
RPMI-8226 leukemia = test system: RPMI-8226 leukemia
CAKI-1 renal = test system: CAKI-1 renal
DU-145 prostate = test system: DU-145 prostate
SK-MEL-2 melanoma = test system: SK-MEL-2 melanoma
UO-31 renal = test system: UO-31 renal
SW-620 colon = test system: SW-620 colon
KM12 colon = test system: KM12 colon
HOP-92 NSCLC = test system: HOP-92 NSCLC
NCI/ADR-RES ovarian = test system: NCI/ADR-RES ovarian
UACC-62 melanoma = test system: UACC-62 melanoma
TK-10 renal = test system: TK-10 renal
NCI-H460 lung = test system: NCI-H460 lung
SN12C renal = test system: SN12C renal
A498 renal = test system: A498 renal
NCI-H522 lung = test system: NCI-H522 lung

Which GI50 (MOLT-4 leukemia) does the source give for `COc1cc(/C=N/NC(=O)c2cn(C3CC3)c3c(OC)c(N4CC5CCCNC5C4)c(F)cc3c2=O)ccc1O` (stereo not given) here?
Its GI50 is 2.3 µM.

What about the TGI (MOLT-4 leukemia) of the same compound?
The TGI was 5.33 µM.

What about the GI50 (PC-3 prostate) of the same compound?
The GI50 was 1.74 µM.

What about the TGI (PC-3 prostate) of the same compound?
Its TGI is 3.28 µM.

And the GI50 (SNB-75 CNS)?
Its GI50 is 1.43 µM.

And the TGI (SNB-75 CNS)?
The TGI was 2.81 µM.

And the GI50 (OVCAR-5 ovarian)?
The GI50 was 1.65 µM.

And the TGI (OVCAR-5 ovarian)?
The TGI was 3.05 µM.

And the GI50 (MALME-3M melanoma)?
The GI50 was 1.69 µM.

What about the TGI (MALME-3M melanoma) of the same compound?
Its TGI is 3.21 µM.

And the GI50 (HT29 colon)?
The GI50 was 1.83 µM.

What about the TGI (HT29 colon) of the same compound?
Its TGI is 3.38 µM.

What about the GI50 (ACHN renal) of the same compound?
The GI50 was 1.7 µM.

What about the TGI (ACHN renal) of the same compound?
The TGI was 3.09 µM.

And the GI50 (SF-539 CNS)?
Its GI50 is 1.73 µM.

And the TGI (SF-539 CNS)?
The TGI was 3.21 µM.

What about the GI50 (SK-MEL-5 melanoma) of the same compound?
Its GI50 is 17.6 µM.

What about the TGI (SK-MEL-5 melanoma) of the same compound?
Its TGI is 41.3 µM.

And the GI50 (MDA-MB-231 breast)?
Its GI50 is 1.69 µM.

And the TGI (MDA-MB-231 breast)?
The TGI was 3.22 µM.

What about the GI50 (RPMI-8226 leukemia) of the same compound?
Its GI50 is 1.88 µM.

What about the TGI (RPMI-8226 leukemia) of the same compound?
Its TGI is 4.38 µM.

What about the GI50 (CAKI-1 renal) of the same compound?
Its GI50 is 1.67 µM.

And the TGI (CAKI-1 renal)?
The TGI was 3.12 µM.

And the GI50 (DU-145 prostate)?
Its GI50 is 1.86 µM.

What about the TGI (DU-145 prostate) of the same compound?
The TGI was 3.31 µM.

What about the GI50 (SK-MEL-2 melanoma) of the same compound?
Its GI50 is 1.85 µM.

What about the TGI (SK-MEL-2 melanoma) of the same compound?
The TGI was 3.68 µM.

And the GI50 (UO-31 renal)?
The GI50 was 1.53 µM.

What about the TGI (UO-31 renal) of the same compound?
Its TGI is 2.93 µM.

And the GI50 (SW-620 colon)?
Its GI50 is 1.73 µM.

What about the TGI (SW-620 colon) of the same compound?
Its TGI is 3.27 µM.

And the GI50 (KM12 colon)?
The GI50 was 1.67 µM.

And the TGI (KM12 colon)?
The TGI was 3.11 µM.

And the GI50 (HOP-92 NSCLC)?
Its GI50 is 1.66 µM.

And the TGI (HOP-92 NSCLC)?
The TGI was 3.16 µM.

What about the GI50 (NCI/ADR-RES ovarian) of the same compound?
Its GI50 is 58.8 µM.

What about the TGI (NCI/ADR-RES ovarian) of the same compound?
Its TGI is greater than 100 µM.

What about the GI50 (UACC-62 melanoma) of the same compound?
Its GI50 is 1.72 µM.

What about the TGI (UACC-62 melanoma) of the same compound?
Its TGI is 3.28 µM.

What about the GI50 (TK-10 renal) of the same compound?
Its GI50 is 1.68 µM.

And the TGI (TK-10 renal)?
The TGI was 3.1 µM.

What about the GI50 (NCI-H460 lung) of the same compound?
The GI50 was 1.87 µM.

What about the TGI (NCI-H460 lung) of the same compound?
Its TGI is 3.5 µM.

And the GI50 (SN12C renal)?
The GI50 was 1.83 µM.

What about the TGI (SN12C renal) of the same compound?
Its TGI is 3.46 µM.

What about the GI50 (A498 renal) of the same compound?
The GI50 was 1.76 µM.

And the TGI (A498 renal)?
Its TGI is 3.18 µM.

What about the GI50 (NCI-H522 lung) of the same compound?
Its GI50 is 1.79 µM.

And the TGI (NCI-H522 lung)?
Its TGI is 3.4 µM.
